# Tests used:
# [1] = test system: Phytophthora infestans lycopersici; format: in vivo; settings: METHOD 2 (unbanded)
# Puccinia recondita = experiment: Fungicidal test, Puccinia recondita (PUCCRT) on wheat, PRCO; format: in vivo; settings: METHOD 2 (unbanded)
# Musca domestica = settings: 500 ppm by weight; knockdown assessed 15 minutes after treatment
# Method: (§1) The activities of individual compounds of formula (I) were determined using a variety of pests. With the exception of nematodes, the pests were treated with a liquid composition containing 500 parts per million (ppm) by weight of a compound unless otherwise stated. Each composition was made by dissolving the compound in an acetone and ethanol (50:50 by volume) mixture and diluting the solution with water containing 0.05% by volume of a wetting agent, SYNPERONIC NP8, until the liquid composition contained the required concentration of the compound.
# The test procedure adopted with regard to each pest, except nematodes, was essentially the same and composed supporting a number of the pests on a medium which was usually a substrate, a host plant or a foodstuff on which the pests feed, and treating either or both the medium and the pests with a composition. Pest mortality was assessed usually between three and five days after treatment Knockdown of housefly (Musca domestica) was assessed 15 minutes after treatment
# Meloidogyne incognita = experiment: Nematode test, J2 infective juveniles of Meloidogyne incognita, mortality; settings: 12.5 ppm; J2 infective juveniles suspended in solution; mortality after three days
# Method: as §1
# The test procedure for nematodes involved dissolving the compound in an acetone and ethanol (50:50 by volume) mixture and diluting the solution with water to obtain a final concentration of the compound of 12.5 ppm. J2 infective juveniles of Meloidogyne incognita were suspended in the solution in a glass vial and mortality assessed after a period of three days.
# Uncinula necator = experiment: Fungicidal test, Uncinula necator (UNCINE) on vines, PRCO; format: in vivo; settings: METHOD 2 (unbanded)
# Venturia inaequalis = experiment: Fungicidal test, Venturia inaequalis (VENTIN) on apples, PRCO; format: in vivo; settings: METHOD 2 (unbanded)
# [2] = test system: Erysiphe graminis f.sp. tritici; experiment: Fungicidal test, Erysiphe graminis f.sp. tritici (ERYSGT) on wheat, PRCO; format: in vivo; settings: METHOD 2 (unbanded)
# Septoria nodorum = experiment: Fungicidal test, Septoria nodorum (LEPTNO) on wheat, PRCO; format: in vivo; settings: METHOD 2 (unbanded)
# Pyricularia oryzae = format: in vivo; settings: METHOD 2 (unbanded)
Compound,PHYTIN 1 d Prot/Foir PRCO [1],PUCCRT 1 d Prot/Foir PRCO (Puccinia recondita),"MUSCDO AC = Musca domestica (knockdown), score (Musca domestica)","MELGIN = Meloidogyne incognita, grading of mortality (score) (Meloidogyne incognita)",UNCINE 1 d Prot/Foir PRCO (Uncinula necator),VENTIN 1 d Prot/Foir PRCO (Venturia inaequalis),ERYSGT 1 d Prot/Foir PRCO [2],LEPTNO 1 d Prot/Foir PRCO (Septoria nodorum),PYRIOR 1 d Prot/Foir PRCO (Pyricularia oryzae),ERYSGT 6 hr Prot/Foir PRCO ([2]; 6 hr Prot/Foir)
CCOCN(C(=O)Cc1ccc2oc(C)nc2c1)c1snc(C)c1Cl [2(L3)],82,93,9 (9 indicates 80-100% mortality),0 (0 indicates less than 40% mortality),,,,,,
Cc1nsc(NC(=O)Cc2ccc3oc(C4(C)CCCCC4)nc3c2)c1Cl [36(A3)],100,91,,0 (0 indicates less than 40% mortality),99,44,72,2,,
Cc1nsc(NC(=O)Cc2ccc3oc(SCC#N)nc3c2)c1Cl [228(A3)],66,6,0 (0 indicates less than 40% mortality),0 (0 indicates less than 40% mortality),,,,,,
C=CCN(C(=O)Cc1ccc2oc(CC(C)(C)C)nc2c1)c1snc(C)c1Cl [15(E3)],83,74,0 (0 indicates less than 40% mortality),0 (0 indicates less than 40% mortality),,,,,,
CCCc1nc2cc(CC(=O)N(COCCOC)c3snc(C)c3Cl)ccc2o1 [4(M3)],81,85,0 (0 indicates less than 40% mortality),0 (0 indicates less than 40% mortality),,,,,,
Cc1nsc(NC(=O)Cc2ccc3nc(CC(C)(C)C)[nH]c3c2)c1Cl [15(A43)],80,,,,63,,,0,63,
Cc1nsc(NC(=O)Cc2ccc3oc(C(c4ccccc4)c4ccccc4)nc3c2)c1Cl [246(A3)],79,13,,0 (0 indicates less than 40% mortality),−7,13,16,27,,
Cc1nsc(NC(=O)Cc2ccc3oc(O)nc3c2)c1Cl [351(A3)],,,0 (0 indicates less than 40% mortality),0 (0 indicates less than 40% mortality),11,,,,,
Cc1nsc(NC(=O)Cc2ccc3oc(C(C)Cl)nc3c2)c1Cl (racemic) [93(A3)],49,38,,0 (0 indicates less than 40% mortality),10,6,32,24,,
Cc1nc2cc(CC(=O)N(C)c3snc(C)c3Cl)ccc2o1 [2(B3)],100,96,9 (9 indicates 80-100% mortality),0 (0 indicates less than 40% mortality),,,,,,
Cc1nsc(NC(=O)Cc2ccc3oc(CC4CCCC4)nc3c2)c1Cl [42(A3)],100,99,,0 (0 indicates less than 40% mortality),100,74,92,11,,92
CCCC(C)c1nc2cc(CC(=O)Nc3snc(C)c3Cl)ccc2o1 (stereo not drawn) [12(A3)],100,100,,9 (9 indicates 80-100% mortality),100,63,95,17,,
C=CCN(C(=O)Cc1ccc2oc(C)nc2c1)c1snc(C)c1Cl [2(E3)],98,99,0 (0 indicates less than 40% mortality),0 (0 indicates less than 40% mortality),,,,,,
Cc1nsc(NC(=O)Cc2ccc3oc(CSc4ccccc4)nc3c2)c1Cl [173(A3)],77,63,,0 (0 indicates less than 40% mortality),−12,50,16,2,,
C=CCN(C(=O)Cc1ccc2oc(CCC)nc2c1)c1snc(C)c1Cl [4(E3)],95,97,0 (0 indicates less than 40% mortality),0 (0 indicates less than 40% mortality),,,,,,

# From patent US6544989B2, “Benzazoles: benzoxazole, benzthiazole and benzimidazole derivatives” (Syngenta Limited, priority 1998, dated 2003)
